Measured values taken from patent publication US12319672B2, “Alpha-D-galactopyranoside derivatives” (Idorsia Pharmaceuticals Ltd, priority 2019, dated 2025).

Key:
[1] = molecular target: human Gal-3 (hGal-3) (Homo sapiens (Human), UniProt P17931); test: Competitive binding assay: binding of biotinylated hGal-3 to microplate-adsorbed asialofetuin (ASF); details: Activity on hGal-3; mean values of several measurements
Method in brief: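 Biotinylated hGal-3 (300-1000 ng/mL) bound to ASF-coated wells with serially diluted compound, 3 h at 4° C. After washing, bound protein was detected with streptavidin-peroxidase (80 ng/mL, 1 h, 4° C) and ABTS substrate; IC50 values are means of several measurements.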

[2] = molecular target: human Gal-1 (hGal-1) (Homo sapiens, UniProt P09382); test: Competitive binding assay: binding of biotinylated hGal-1 to microplate-adsorbed asialofetuin (ASF); details: Activities on hGal-1; mean values of several measurements
Method in brief: (§1)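 Compounds diluted in DMSO competed with biotinylated hGal-3 or hGal-1 (300-1000 ng/mL) for binding to plate-adsorbed asialofetuin for 3 h at 4° C. Bound galectin was detected with streptavidin-peroxidase (80 ng/mL, 1 h, 4° C) and ABTS substrate; IC50 reported as mean of several measurements.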

[3] = molecular target: human Gal-1 (hGal-1); test: as above; details: Activities on hGal-1; mean values of several measurements
Method in brief: as §1

Chain of human Gal-1 (hGal-1) (P09382 2-135 limits assumed): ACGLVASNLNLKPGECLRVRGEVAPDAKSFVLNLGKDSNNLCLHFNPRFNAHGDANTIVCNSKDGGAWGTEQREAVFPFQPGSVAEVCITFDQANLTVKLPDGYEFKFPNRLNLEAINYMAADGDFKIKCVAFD
Chain of human Gal-3 (hGal-3) (P17931 whole entry): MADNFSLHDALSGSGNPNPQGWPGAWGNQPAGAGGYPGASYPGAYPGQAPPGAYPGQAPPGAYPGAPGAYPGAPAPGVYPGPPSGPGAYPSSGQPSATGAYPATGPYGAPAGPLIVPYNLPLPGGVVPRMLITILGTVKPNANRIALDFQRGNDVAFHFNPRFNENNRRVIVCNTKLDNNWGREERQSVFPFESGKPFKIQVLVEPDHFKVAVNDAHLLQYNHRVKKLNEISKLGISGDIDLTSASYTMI
Chain of human Gal-1 (hGal-1) (Homo sapiens, UniProt P09382) (P09382 2-135 limits assumed): as the sequence (P09382 2-135 limits assumed) above

Molecule | IC50 [1] | IC50 [2] | IC50 [3]
CC(C)(C)OC(=O)N1CCC(c2cc(C[C@H]3O[C@H](CO)[C@H](O)[C@H](n4cc(-c5cc(F)c(F)c(F)c5)nn4)[C@H]3OCC(F)F)no2)CC1 [Example 2.25, tert-butyl 4-(3-(((2R,3R,4S,5R,6R)-3-(2,2-difluoroethoxy)-5-hydroxy-6-(hydroxymethyl)-4-(4-(3,4,5-trifluorophenyl)-1H-1,2,3-triazol-1-yl)tetrahydro-2H-pyran-2-yl)methyl)issoxazole-5-yl)piperidine-1-carboxylate] | 170 nM | 1280 nM | 
CO[C@@H]1[C@@H](n2cc(-c3cc(F)c(F)c(F)c3)nn2)[C@@H](O)[C@@H](CO)O[C@@H]1Cn1cnc(C(C)(C)C)c1 [Example 6.04, (2R,3R,4S,5R,6R)-6-((4-(tert-butyl)-1H-imidazol-1-yl)methyl)-2-(hydroxymethyl)-5-methoxy-4-(4-(3,4,5-trifluorophenyl)-1H-1,2,3-triazol-1-yl)tetrahydro-2H-pyran-3-ol] | 180 nM |  | 2380 nM
CO[C@@H]1[C@@H](n2cc(-c3cc(F)c(F)c(F)c3)nn2)[C@@H](O)[C@@H](CO)O[C@@H]1Cc1cn(-c2ccccc2)c(=O)o1 [Example 6.05, 5-(((2R,3R,4S,5R,6R)-5-hydroxy-6-(hydroxymethyl)-3-methoxy-4-(4-(3,4,5-trifluorophenyl)-1H-1,2,3-triazol-1-yl)tetrahydro-2H-pyran-2-yl)methyl)-3-phenyloxazol-2(3H)-one] | 250 nM |  | 8190 nM
CO[C@@H]1[C@@H](n2cc(-c3ccc(C)c(F)c3F)nn2)[C@@H](O)[C@@H](CO)O[C@@H]1CN1CC(=O)N(C2CCCCC2)C1 [Example 6.06, 3-cyclohexyl-1-(((2R,3R,4S,5R,6R)-4-(4-(2,3-difluoro-4-methylphenyl)-1H-1,2,3-triazol-1-yl)-5-hydroxy-6-(hydroxymethyl)-3-methoxytetrahydro-2H-pyran-2-yl)methyl)imidazolidin-4-one] | 42 nM |  | 1630 nM
CO[C@@H]1[C@@H](n2cc(-c3cc(F)c(F)c(F)c3)nn2)[C@@H](O)[C@@H](CO)O[C@@H]1CN1CN(C2CCN(C(C)=O)CC2)CC1=O [Example 6.07, 1-(1-acetylpiperidin-4-yl)-3-(((2R,3R,4S,5R,6R)-5-hydroxy-6-(hydroxymethyl)-3-methoxy-4-(4-(3,4,5-trifluorophenyl)-1H-1,2,3-triazol-1-yl)tetrahydro-2H-pyran-2-yl)methyl)imidazolidin-4-one] | 150 nM |  | 910 nM
CO[C@@H]1[C@@H](n2cc(-c3cc(F)c(F)c(F)c3)nn2)[C@@H](O)[C@@H](CO)O[C@@H]1CN1CC(=O)N(C2CCN(C(C)=O)CC2)C1 [Example 6.08, 3-(1-acetylpiperidin-4-yl)-1-(((2R,3R,4S,5R,6R)-5-hydroxy-6-(hydroxymethyl)-3-methoxy-4-(4-(3,4,5-trifluorophenyl)-1H-1,2,3-triazol-1-yl)tetrahydro-2H-pyran-2-yl)methyl)imidazolidin-4-one] | 22 nM |  | 73 nM
CO[C@@H]1[C@@H](n2cc(-c3cc(F)c(F)c(F)c3)nn2)[C@@H](O)[C@@H](CO)O[C@@H]1CN1CC(=O)N(C2CCCCC2)C1 [Example 6.09, 3-cyclohexyl-1-(((2R,3R,4S,5R,6R)-5-hydroxy-6-(hydroxymethyl)-3-methoxy-4-(4-(3,4,5-trifluorophenyl)-1H-1,2,3-triazol-1-yl)tetrahydro-2H-pyran-2-yl)methyl)imidazolidin-4-one] | 59 nM |  | 6720 nM
CO[C@@H]1[C@@H](n2cc(-c3cc(F)c(F)c(F)c3)nn2)[C@@H](O)[C@@H](CO)O[C@@H]1CN1CC(=O)N(C2CCOCC2)C1 [Example 6.10, 1-(((2R,3R,4S,5R,6R)-5-hydroxy-6-(hydroxymethyl)-3-methoxy-4-(4-(3,4,5-trifluorophenyl)-1H-1,2,3-triazol-1-yl)tetrahydro-2H-pyran-2-yl)methyl)-3-(tetrahydro-2H-pyran-4-yl)imidazolidin-4-one] | 37 nM |  | 890 nM
CCOC(=O)N1CCC(N2CN(C[C@H]3O[C@H](CO)[C@H](O)[C@H](n4cc(-c5cc(F)c(F)c(F)c5)nn4)[C@H]3OC)CC2=O)CC1 [Example 6.11, ethyl 4-(3-(((2R,3R,4S,5R,6R)-5-hydroxy-6-(hydroxymethyl)-3-methoxy-4-(4-(3,4,5-trifluorophenyl)-1H-1,2,3-triazol-1-yl)tetrahydro-2H-pyran-2-yl)methyl)-5-oxoimidazolidin-1-yl)piperidine-1-carboxylate] | 26 nM |  | 92 nM
(2R,3R,4S,5R,6R)-4-(4-(2,3-difluoro-4-methylphenyl)-1H-1,2,3-triazol-1-yl)-6-((3-(1-hydroxycyclobutyl)isoxazol-5-yl)methyl)-2-(hydroxymethyl)-5-methoxytetrahydro-2H-pyran-3-ol [Example 2.57] | 81 nM |  | 1450 nM
(2R,3R,4S,5R,6R)-4-(4-(4-chloro-2,3-difluorophenyl)-1H-1,2,3-triazol-1-yl)-6-((3-(1-hydroxycyclobutyl)isoxazol-5-yl)methyl)-2-(hydroxymethyl)-5-methoxytetrahydro-2H-pyran-3-ol [Example 2.58] | 60 nM |  | 1460 nM
